This test addresses T1, human κ opioid receptor (OPRK1) (Homo sapiens, UniProt P41145).
T1 construct: expressed in transfected cells; host or cells: CHO-K1
The test can be described thus: Determination of activities of κ receptor agonists: inhibition of forskolin-stimulated cAMP release (HTRF) in stably transfected CHO-K1 cells. Format: cell-based. The following applies: for Relative Activity %: relative to Difelikefalin = 100.0. The source says: Gi-coupled human κ opioid receptor (OPRK1), upon stimulation with its specific opioid receptor agonists, can inhibit the intracellular adenylate cyclase pathway, and decrease cAMP levels. Forskolin can stimulate cAMP release in cell lines highly expressing opioid receptors. By stimulating cell lines stably transfected with opioid receptors, the inhibitory effect of a test compound on forskolin-stimulated cAMP release can be measured to determine the activity of the compound. The relative light units (RLU) from the cells after stimulation with different doses were measured via the homogeneous time-resolved fluorescence technique (HTRF), and the EC50 value of the agonist was subsequently calculated. This activity determination method is a currently commonly used method for determining the activities of opioid receptor agonists at home and abroad.
A CHO-K1 cell line stably expressing opioid receptors was used. Stably transfected cells were stimulated with various concentrations of agonists (under the stimulation of a certain concentration of forskolin). The relative light units from the cells after stimulation with different doses were measured, from which the EC50 value of the agonist was subsequently obtained by calculation.
(Time-resolved FRET reads energy transfer from a long-lived donor to a nearby acceptor.)

Setting [1] is: CHO-K1 cell line stably expressing opioid receptors, forskolin-stimulated cAMP, HTRF, read-out: EC50.

SMILES strings stand for the structures. Read-outs that look alike come from different tables or passages of the source. Square brackets hold non-standard residues; d marks the D form. Side chains are listed from the residue outwards. Peptide text beside a SMILES is read from it. * marks the point of attachment. X12 = CCOc1ccc(C[C@@H](NC(=O)[C@H](N)Cc2ccccc2)C(=O)*)cc1; Piperidin1yl(4-NH2,4-COOH) = NC1(C(=O)O)CCN(*)CC1; Piperidinyl(4-NH2,4-CONH2) = NC(=O)C1(N)CCN(*)CC1; X10 = NCCCC[C@@H](NC(=O)C1(N)CCN(*)CC1)C(=O)O; X1 = NCCCC[C@@H](NC(=O)C1(N)CCN(*)CC1)C(N)=O; X6 = NCCCC[C@H](NC(=O)C1(N)CCN(*)CC1)C(N)=O; dAla(cPr) = N[C@H](CC1CC1)C(=O)O; Trifluoroethyl = FC(F)(F)C*; Api = NC1(C(=O)O)CCNCC1; iPr = CC(C)*

T1 sequence (P41145 whole entry): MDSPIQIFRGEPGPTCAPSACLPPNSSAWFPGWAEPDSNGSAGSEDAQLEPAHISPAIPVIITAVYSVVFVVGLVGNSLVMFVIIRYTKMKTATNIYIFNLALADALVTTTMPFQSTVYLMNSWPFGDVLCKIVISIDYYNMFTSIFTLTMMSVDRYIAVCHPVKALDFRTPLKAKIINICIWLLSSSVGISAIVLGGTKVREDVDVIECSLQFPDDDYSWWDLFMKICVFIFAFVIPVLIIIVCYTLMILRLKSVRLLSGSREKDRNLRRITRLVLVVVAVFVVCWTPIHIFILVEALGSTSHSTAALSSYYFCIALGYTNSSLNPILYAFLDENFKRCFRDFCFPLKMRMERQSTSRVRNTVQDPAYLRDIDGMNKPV

Turning to `CCOc1ccc(C[C@@H](NC(=O)[C@H](N)Cc2ccccc2)C(=O)N[C@H](CC(C)C)C(=O)N[C@H](CCCCN)C(=O)N2CCC(N)(C(=O)NCC(=O)NCC(=O)NCC(=O)N[C@@H](CCCCN)C(=O)O)CC2)cc1` [Compound 56, D-Phe-D-Tyr(Et)-D-Leu-D-Lys-4-aminopiperidine-4-carboxamide-Gly-Gly-Gly-Lys-OH] (H-[Api]([dK-dL-X12])GGGK-OH; N-terminus assumed), the EC50 (usually the midpoint of the concentration-response curve) stood at 0.0506 nM and the “Relative Activity %” value is on record as 1200.0%.
For `CCOc1ccc(C[C@@H](NC(=O)[C@H](N)Cc2ccccc2)C(=O)N[C@H](CC(C)C)C(=O)N[C@H](CCCCN)C(=O)N2CCC(N)(C(=O)NCC(=O)NCC(=O)NCC(=O)N[C@H](CCCCN)C(N)=O)CC2)cc1` [Compound 57, D-Phe-D-Tyr(Et)-D-Leu-D-Lys-4-aminopiperidine-4-carboxamide-Gly-Gly-Gly-D-Lys-NH2] (H-[Api]([dK-dL-X12])GGG[dK]-NH2; N-terminus assumed) the same measures were 0.0514 nM and 1181.3%.
Taken in the same sequence, the figures for `CCOc1ccc(C[C@@H](NC(=O)[C@H](N)Cc2ccccc2)C(=O)N[C@H](CC(C)C)C(=O)N[C@H](CCCCN)C(=O)N2CCC(N)(C(=O)NCC(=O)NCC(=O)NCC(=O)N[C@H](CCCCN)C(=O)O)CC2)cc1` [Compound 58, D-Phe-D-Tyr(Et)-D-Leu-D-Lys-4-aminopiperidine-4-carboxamide-Gly-Gly-Gly-D-Lys-OH] (H-[Api]([dK-dL-X12])GGG[dK]-OH; N-terminus assumed) were 0.0515 nM and 1179.0%.
Taken in the same sequence, the figures for `CCOc1ccc(C[C@@H](NC(=O)[C@H](N)Cc2ccccc2)C(=O)N[C@H](CC(C)C)C(=O)N[C@H](CCCCN)C(=O)N2CCC(N)(C(=O)NCC(=O)NCC(=O)NCC(=O)NCC(=O)N[C@@H](CCCCN)C(N)=O)CC2)cc1` [Compound 59, D-Phe-D-Tyr(Et)-D-Leu-D-Lys-4-aminopiperidine-4-carboxamide-Gly-Gly-Gly-Gly-Lys-NH2] (H-[Api]([dK-dL-X12])GGGGK-NH2; N-terminus assumed) were 0.0694 nM and 874.9%.
For the molecule `CCOc1ccc(C[C@@H](NC(=O)[C@H](N)Cc2ccccc2)C(=O)N[C@H](CC(C)C)C(=O)N[C@H](CCCCN)C(=O)N2CCC(N)(C(=O)NCC(=O)NCC(=O)NCC(=O)NCC(=O)N[C@H](CCCCN)C(N)=O)CC2)cc1` [Compound 61, D-Phe-D-Tyr(Et)-D-Leu-D-Lys-4-aminopiperidine-4-carboxamide-Gly-Gly-Gly-Gly-D-Lys-NH2] (H-[Api]([dK-dL-X12])GGGG[dK]-NH2; N-terminus assumed), a half-maximal response (EC50) required 0.0706 nM and the “Relative Activity %” value is reported as 860.1%.
Taken in the same sequence, the figures for `CCOc1ccc(C[C@@H](NC(=O)[C@H](N)Cc2ccccc2)C(=O)N[C@H](CC(C)C)C(=O)N[C@H](CCCCN)C(=O)N2CCC(N)(C(=O)NCC(=O)NCC(=O)NCC(=O)NCC(=O)NCC(=O)N[C@H](CCCCN)C(N)=O)CC2)cc1` [Compound 65, D-Phe-D-Tyr(Et)-D-Leu-D-Lys-4-aminopiperidine-4-carboxamide-Gly-Gly-Gly-Gly-Gly-D-Lys-NH2] (H-[Api]([dK-dL-X12])GGGGG[dK]-NH2; N-terminus assumed) were 0.0884 nM and 686.9%.
For `CCOc1ccc(C[C@@H](NC(=O)[C@H](N)Cc2ccccc2)C(=O)N[C@H](CC(C)C)C(=O)N[C@H](CCCCN)C(=O)N2CCC(N)(C(=O)NCC(=O)NCC(=O)NCC(=O)NCC(=O)NCC(=O)N[C@H](CCCCN)C(=O)O)CC2)cc1` [Compound 66, D-Phe-D-Tyr(Et)-D-Leu-D-Lys-4-aminopiperidine-4-carboxamide-Gly-Gly-Gly-Gly-Gly-D-Lys-OH] (H-[Api]([dK-dL-X12])GGGGG[dK]-OH; N-terminus assumed), the EC50 was found to be 0.0895 nM and the “Relative Activity %” value turned out to be 678.4%.
Take `CCOc1ccc(C[C@@H](NC(=O)[C@H](N)Cc2ccccc2)C(=O)N[C@H](CC2CC2)C(=O)N[C@H](CCCCN)C(=O)N2CCC(N)(C(N)=O)CC2)cc1` [Compound 67, D-Phe-D-Tyr(Et)-D-cyclopropylalanine-D-Lys-4-aminopiperidine-4-carboxamide-NH2] (H-[dF][dY](Et)[dAla(cPr)][dK]-{Piperidinyl(4-NH2,4-CONH2)}; N-terminus assumed): the “Relative Activity %” value came out at 477.7%. The EC50 under setting [1] was found to be 0.127 nM.
Taken in the same sequence, the figures for `CCOc1ccc(C[C@@H](NC(=O)[C@H](N)Cc2ccccc2)C(=O)N[C@H](CC2CC2)C(=O)N[C@H](CCCCN)C(=O)N2CCC(N)(C(=O)O)CC2)cc1` [Compound 68, D-Phe-D-Tyr(Et)-D-cyclopropylalanine-D-Lys-4-aminopiperidine-4-carboxamide-OH] (H-[dF][dY](Et)[dAla(cPr)][dK]-{Piperidin1yl(4-NH2,4-COOH)}; N-terminus assumed) were 483.4% and 0.126 nM.
Taken in the same sequence, the figures for `CCOc1ccc(C[C@@H](NC(=O)[C@H](N)Cc2ccccc2)C(=O)N[C@H](CC2CC2)C(=O)N[C@H](CCCCN)C(=O)N2CCC(N)(C(=O)N[C@@H](CCCCN)C(N)=O)CC2)cc1` [Compound 69, D-Phe-D-Tyr(Et)-D-cyclopropylalanine-D-Lys-4-aminopiperidine-4-carboxamide-Lys-NH2] (H-[dF][dY](Et)[dAla(cPr)][dK]-X6; N-terminus assumed) were 1432.1% and 0.0424 nM.
As to `CCOc1ccc(C[C@@H](NC(=O)[C@H](N)Cc2ccccc2)C(=O)N[C@H](CC2CC2)C(=O)N[C@H](CCCCN)C(=O)N2CCC(N)(C(=O)N[C@H](CCCCN)C(N)=O)CC2)cc1` [Compound 71, D-Phe-D-Tyr(Et)-D-cyclopropylalanine-D-Lys-4-aminopiperidine-4-carboxamide-D-Lys-NH2] (H-[dF][dY](Et)[dAla(cPr)][dK]-X1; N-terminus assumed), the EC50 came out at 0.041 nM and the “Relative Activity %” value was determined as 1481.0%.
For the molecule `COc1ccc(C[C@@H](NC(=O)[C@H](N)Cc2ccccc2)C(=O)N[C@H](CC(C)C)C(=O)N[C@H](CCCCN)C(=O)N2CCC(N)(C(=O)O)CC2)cc1` [Compound 86, D-Phe-D-Tyr(Me)-D-Leu-D-Lys-4-aminopiperidine-4-carboxamide-OH] (H-[dF][dY](Me)[dL][dK]-{Piperidin1yl(4-NH2,4-COOH)}; N-terminus assumed), the half-maximal effective concentration (EC50) amounted to 0.121 nM and the “Relative Activity %” value is given as 501.0%.
For `COc1ccc(C[C@@H](NC(=O)[C@H](N)Cc2ccccc2)C(=O)N[C@H](CC(C)C)C(=O)N[C@H](CCCCN)C(=O)N2CCC(N)(C(=O)N[C@@H](CCCCN)C(N)=O)CC2)cc1` [Compound 87, D-Phe-D-Tyr(Me)-D-Leu-D-Lys-4-aminopiperidine-4-carboxamide-Lys-NH2] (H-[dF][dY](Me)[dL][dK]-X6; N-terminus assumed) the same measures were 0.0422 nM and 1438.9%.
For `CC(C)C[C@@H](NC(=O)[C@@H](Cc1ccc(OCC(F)(F)F)cc1)NC(=O)[C@H](N)Cc1ccccc1)C(=O)N[C@H](CCCCN)C(=O)N1CCC(N)(C(N)=O)CC1` [Compound 91, D-Phe-D-Tyr(CH2CF3)-D-Leu-D-Lys-4-aminopiperidine-4-carboxamide-NH2] (H-[dF][dY](Trifluoroethyl)[dL][dK]-{Piperidinyl(4-NH2,4-CONH2)}; N-terminus assumed) the same measures were 0.11 nM and 550.0%.
Turning to `CC(C)C[C@@H](NC(=O)[C@@H](Cc1ccc(OCC(F)(F)F)cc1)NC(=O)[C@H](N)Cc1ccccc1)C(=O)N[C@H](CCCCN)C(=O)N1CCC(N)(C(=O)O)CC1` [Compound 92, D-Phe-D-Tyr(CH2CF3)-D-Leu-D-Lys-4-aminopiperidine-4-carboxamide-OH] (H-[dF][dY](Trifluoroethyl)[dL][dK]-{Piperidin1yl(4-NH2,4-COOH)}; N-terminus assumed), the EC50 worked out at 0.109 nM and the “Relative Activity %” value came out at 558.6%.
Taken in the same sequence, the figures for `CC(C)C[C@@H](NC(=O)[C@@H](Cc1ccc(OCC(F)(F)F)cc1)NC(=O)[C@H](N)Cc1ccccc1)C(=O)N[C@H](CCCCN)C(=O)N1CCC(N)(C(=O)N[C@H](CCCCN)C(N)=O)CC1` [Compound 95, D-Phe-D-Tyr(CH2CF3)-D-Leu-D-Lys-4-aminopiperidine-4-carboxamide-D-Lys-NH2] (H-[dF][dY](Trifluoroethyl)[dL][dK]-X1; N-terminus assumed) were 0.0505 nM and 1202.4%.
In the case of `CC(C)C[C@@H](NC(=O)[C@@H](Cc1ccc(OCC(F)(F)F)cc1)NC(=O)[C@H](N)Cc1ccccc1)C(=O)N[C@H](CCCCN)C(=O)N1CCC(N)(C(=O)N[C@H](CCCCN)C(=O)O)CC1` [Compound 96, D-Phe-D-Tyr(CH2CF3)-D-Leu-D-Lys-4-aminopiperidine-4-carboxamide-D-Lys-OH] (H-[dF][dY](Trifluoroethyl)[dL][dK]-X10; N-terminus assumed), the midpoint of the response, the EC50, lay at 0.0494 nM and the “Relative Activity %” value was determined as 1229.1%.
On to `CC(C)C[C@@H](NC(=O)[C@@H](Cc1ccc(OC(C)C)cc1)NC(=O)[C@H](N)Cc1ccccc1)C(=O)N[C@H](CCCCN)C(=O)N1CCC(N)(C(=O)O)CC1` [Compound 98, D-Phe-D-Tyr(Ipr)-D-Leu-D-Lys-4-aminopiperidine-4-carboxamide-OH] (H-[dF][dY](iPr)[dL][dK]-{Piperidin1yl(4-NH2,4-COOH)}; N-terminus assumed), for which the midpoint of the response, the EC50, lay at 0.145 nM and the “Relative Activity %” value was determined as 418.2%.
